Earlier results, collected in publication PMC12525602, “Identification of Selective α-Glucosidase Inhibitors via Virtual Screening with Machine Learning” (Molecules, 2025).

tested on: α-glucosidase; settings: 300-compound dataset of reported inhibitors and ineffective compounds, Table S4; cited from earlier work

SMILES | activity (label in modeling dataset)
COc1cc(-c2oc3cc(O)cc(O)c3c(=O)c2O[C@@H]2O[C@H](CO)[C@@H](O)[C@H](O)[C@H]2O)ccc1O [compound 1, COC1=C(O)C=CC(C2=C(O[C@H]3[C@H](O)[C@@H](O)[C@H](O)[C@@H](CO)O3)C(C4=C(O)C=C(O)C=C4O2)=O)=C1] | 0

same assay, conditions: Table S5 modeling dataset; activity label 1 = active, 0 = inactive; cited from earlier work

SMILES | activity
CCCSc1nnc(COc2cccc3cccnc23)o1 [compound 123] | 0
Fc1ccc(-n2cc(CSc3nnc(COc4cccc5cccnc45)o3)nn2)cc1 [compound 115] | 0
COc1cccc(C(=O)C2C(O)c3ccccc3S(=O)(=O)N2CC(=O)Nc2ccc([N+](=O)[O-])cc2)c1 (stereo not shown) [compound 101] | 0
N#Cc1ccc2[nH]c(-c3nnc(Nc4ccccc4Cl)s3)cc2c1 [compound 125] | 0
Clc1ccc(CSc2nnc(COc3cccc4cccnc34)o2)cc1 [compound 121] | 0
Brc1ccc(CSc2nnc(COc3cccc4cccnc34)o2)cc1 [compound 107] | 0
O=C(c1ccccc1)c1ccc2nc(-c3ccc(Cl)cc3)[nH]c2c1 [compound 114] | 0
CC1CCCN(c2ccc(/C=N/Nc3nc(-c4ccc(O)c(O)c4)cs3)cc2)C1 (stereo not shown) [compound 93] | 0
N#Cc1ccc2[nH]c(-c3nnc(Nc4cccc(F)c4)s3)cc2c1 [compound 124] | 0
O=c1c(O[C@@H]2OC[C@H](O)[C@H](O)[C@H]2O)c(-c2ccc(O)c(O)c2)oc2cc(O)cc(O)c12 [compound 104] | 0
Fc1ccc(CSc2nnc(COc3cccc4cccnc34)o2)cc1 [compound 128] | 0
O=C(NNS(=O)(=O)c1cccc(Cl)c1)c1cc2cc(F)ccc2[nH]1 [compound 136] | 0

same assay, conditions: activity label in the 300-compound modeling dataset (Table S5); 1 = active, 0 = inactive; cited from earlier work

SMILES | activity
COc1cc(/C=N/N=C2\C(=O)Nc3ccccc32)ccc1OCc1cn(Cc2ccccc2)nn1 [compound 224] | 1
N#Cc1ccc2[nH]c(-c3nnc(Nc4ccc(Cl)c(Cl)c4)s3)cc2c1 [compound 193] | 1
C=C(C)[C@@H]1CCC2=Cc3nc(NC(=O)c4ccc(Cl)cc4)sc3[C@@H](C)[C@]2(C)C1 [compound 220] | 1
CCCCCCCCCCCCCCCC(N)=O [compound 188] | 1
O=C(O)/C=C/c1ccc(O)cc1 [compound 195] | 1
O=C(COc1c(I)cc(Cl)c2cccnc12)c1ccccc1 [compound 214] | 1
O=c1c(O)c(-c2ccc(O)c(O)c2)oc2cc(O)ccc12 [compound 231] | 1
COc1cc(/C=C/C(=O)O)ccc1O/C(=C\c1cc(OC)c(O)c(-c2cc(/C=C/C(=O)O)cc(OC)c2O)c1)C(=O)O [compound 210] | 1
Nc1ccc(CCC(=O)N2CC[C@@H](O)[C@@H](O)C2)cc1 [compound 190] | 1
COc1cc(/C=C/C(=O)O)cc(-c2cc(/C=C/C(=O)O)cc(OC)c2O)c1O [compound 205] | 1
COc1ccc(Br)cc1-c1nnc(/N=C(/CSc2nnc3c(n2)[nH]c2ccccc23)c2ccc(C)cc2)s1 [compound 189] | 1
CCOC(=O)c1ccc(-n2c(/C=C3\OC(=O)c4c3cc(C)[nH]c4=O)ccc2CO)cc1 [compound 228] | 1

same assay, conditions: activity label of the 300-compound modeling dataset, Table S5; cited from earlier work

SMILES | activity
Fc1cccc(CNc2cccc(-c3nc4ccccc4[nH]3)c2)c1 [compound 260] | 1
Cn1ccnc1SC(=O)c1ccc(-c2ccccc2F)o1 [compound 272] | 1
CN(C)c1ccc(/C=N/CCc2ccc(O)cc2)cc1 [compound 258] | 1
Cc1ccc(C(=O)COc2c(I)cc(Cl)c3cccnc23)cc1 [compound 238] | 1
O=C1C(=NNc2nncs2)c2ccccc2N1Cc1ccc(Cl)cc1 [compound 255] | 1
O=c1c(O)c(-c2ccc(O)cc2)oc2cc(O)ccc12 [compound 252] | 1
Brc1cccc(CNc2cccc(-c3nc4ccccc4[nH]3)c2)n1 [compound 265] | 1
O=C(/C=C/c1ccc(O)cc1)c1cccc2[nH]c(=O)oc12 [compound 247] | 1
O=C(N/N=C/C1CC(=O)c2ccccc2O1)c1ccc(O)cc1 (stereo not shown) [compound 250] | 1
COc1ccc(/C(CSc2nnc3c(n2)[nH]c2ccccc23)=N\c2nnc(-c3ccc(Cl)c(Cl)c3)s2)cc1 [compound 249] | 1

same assay, conditions: activity label of the modeling dataset (Table S5), α-glucosidase; 1 = active, 0 = inactive; cited from earlier work

SMILES | activity
Fc1ccc(Cn2cc(CSc3nnc(COc4cccc5cccnc45)o3)nn2)cc1F [compound 29] | 0
O=C(O)c1ccc(-c2nc3ccc(C(=O)c4ccccc4)cc3[nH]2)cc1 [compound 5] | 0
N#Cc1c(-c2ccncc2)cc(-c2ccccn2)c(C#N)c1N [compound 28] | 0
O=c1c(O[C@@H]2O[C@H](CO)[C@@H](O)[C@H](O)[C@H]2O)c(-c2ccc(O)cc2)oc2cc(O)cc(O)c12 [compound 41] | 0
CC1CCN(c2ccc(/C=N/Nc3nc(-c4ccc(C#N)cc4)cs3)cc2)CC1 [compound 22] | 0
Cc1ccc(-c2cc(-c3ccncc3)c(C#N)c(N)c2C#N)cc1 [compound 35] | 0
N#Cc1c(-c2ccc(-c3ccccc3)cc2)cc(-c2ccc([N+](=O)[O-])cc2)c(C#N)c1N [compound 10] | 0
COc1cc(-c2oc3cc(O)cc(O)c3c(=O)c2O[C@@H]2O[C@H](CO)[C@@H](O)[C@H](O)[C@H]2O)ccc1O [compound 1, COC1=C(O)C=CC(C2=C(O[C@H]3[C@H](O)[C@@H](O)[C@H](O)[C@@H](CO)O3)C(C4=C(O)C=C(O)C=C4O2)=O)=C1] | 0
Cc1ccc(-c2cc(-c3ccc([N+](=O)[O-])cc3)c(C#N)c(N)c2C#N)cc1 [compound 26] | 0
N#Cc1c(-c2ccc([N+](=O)[O-])cc2)cc(-c2cccc([N+](=O)[O-])c2)c(C#N)c1N [compound 32] | 0

same assay, conditions: activity label of the modeling dataset, Table S5 (1 = active, 0 = inactive); cited from earlier work

SMILES | activity
N#Cc1c(-c2ccc(Cl)cc2)cc(-c2cccc(Br)c2)c(C#N)c1N [compound 46] | 0
CC1CCN(c2ccc(/C=N/Nc3nc(-c4ccc(Cl)cc4)cs3)cc2)CC1 [compound 83] | 0
Cc1ccc(-n2cc(CSc3nnc(COc4cccc5cccnc45)o3)nn2)cc1 [compound 59] | 0
Cc1ccc(S(=O)(=O)NNC(=O)c2cc3cc(F)ccc3[nH]2)cc1 [compound 53] | 0
CC1CCCN(c2ccc(/C=N/Nc3nc(-c4ccc(Br)cc4)cs3)cc2)C1 (stereo not shown) [compound 70] | 0
CCCCCn1cc(CSc2nnc(COc3cccc4cccnc34)o2)nn1 [compound 82] | 0
CC1CCN(c2ccc(/C=N/Nc3nc(-c4ccc(F)cc4F)cs3)cc2)CC1 [compound 84] | 0
CC1CCN(c2ccc(/C=N/Nc3nc(-c4ccc(O)c(O)c4)cs3)cc2)CC1 [compound 79] | 0
O=[N+]([O-])c1ccc(Cn2cc(CSc3nnc(COc4cccc5cccnc45)o3)nn2)cc1 [compound 56] | 0
CCSc1nnc(COc2cccc3cccnc23)o1 [compound 63] | 0
Cc1cccc(C)c1-n1cc(CSc2nnc(COc3cccc4cccnc34)o2)nn1 [compound 58] | 0
O=[N+]([O-])c1ccc(-n2cc(CSc3nnc(COc4cccc5cccnc45)o3)nn2)cc1 [compound 72] | 0
c1ccc(Cn2cc(CSc3nnc(COc4cccc5cccnc45)o3)nn2)cc1 [compound 54] | 0
Fc1ccc(Cn2cc(CSc3nnc(COc4cccc5cccnc45)o3)nn2)cc1 [compound 69] | 0
Clc1ccc(-n2cc(CSc3nnc(COc4cccc5cccnc45)o3)nn2)c(Cl)c1 [compound 49] | 0
Clc1ccc(Cn2cc(CSc3nnc(COc4cccc5cccnc45)o3)nn2)cc1 [compound 73] | 0

same assay, conditions: activity label of the modeling dataset, Table S5; cited from earlier work

SMILES | activity
O=C1/C(=N\N=C\c2ccc(OCc3cn(Cc4ccccc4)nn3)cc2)c2ccccc2N1c1ccc(Br)cc1 [compound 145] | 0
COc1cccc(C(=O)C2=C(O)c3ccccc3S(=O)(=O)C2CC(=O)Nc2ccc(Cl)cc2)c1 (stereo not shown) [compound 177] | 1
COc1cc(/C=C(\Oc2ccc(/C=C/C(=O)O)cc2OC)C(=O)O)ccc1O [compound 157] | 1
COc1cccc(C(=O)C2C(O)c3ccccc3S(=O)(=O)N2CC(=O)Nc2ccccc2Cl)c1 (stereo not shown) [compound 168] | 1
Brc1cc(-c2ccccc2)ccc1/C(CSc1nnc2c(n1)[nH]c1ccccc12)=N\c1nnc(-c2ccc3ccccc3c2)s1 [compound 152] | 1
O=C(CCc1ccc(O)cc1)c1c(O)cc(O)cc1O [compound 176] | 1
Cc1ccc(Cn2cc(COc3ccc(/C=N/N=C4\C(=O)N(c5ccc(Br)cc5)c5ccccc54)cc3)nn2)cc1 [compound 147] | 0
COc1cc(/C=N/N=C2\C(=O)Nc3ccccc32)ccc1OCc1cn(Cc2ccccc2C)nn1 [compound 142] | 0
O=C(NNS(=O)(=O)c1ccc(Br)cc1)c1cc2cc(F)ccc2[nH]1 [compound 182] | 1
O=C1/C(=N\N=C\c2ccc(OCc3cn(Cc4ccccc4F)nn3)cc2)c2ccccc2N1c1ccc(Br)cc1 [compound 148] | 0

same assay, conditions: activity label of the modeling dataset, sheet Table S5; 1 = active, 0 = inactive; cited from earlier work

SMILES | activity
Cc1ccc(-c2cc(C(F)(F)F)nn2-c2ccc(S(=O)(=O)NC(=O)c3ccc(C)c([N+](=O)[O-])c3)cc2)cc1 [compound 281] | 1
CC(C)=CCn1c(=O)oc2c(C(=O)/C=C/c3cc(F)c(O)c(F)c3)cccc21 [compound 280] | 1
c1ccc(-c2ccc(-c3cnc4ccccc4n3)cc2)cc1 [compound 288] | 1
COC(=O)Cn1c(=O)oc2c(C(=O)/C=C/c3ccc(O)c(F)c3)cccc21 [compound 284] | 1
Cc1cc2ncc(-c3ccccc3)nc2cc1C [compound 294] | 1
CCC/C=N/N=C(/C)c1ccc([N+](=O)[O-])cc1 [compound 285] | 1
Clc1cccc(-c2cnc3ccccc3n2)c1 [compound 290] | 1
CCOC(=O)c1cc(-c2ccc(Br)cc2)n2nc3ccccc3c2n1 [compound 296] | 1
